Laboratory results from patent publication US20250263370A1 (Tay Therapeutics Limited, priority 2022, published 2025).
Where two headings read alike, the source gives them in different places.

How the values were obtained:
CXCL10 = CXCL10 levels by ELISA in IFN-γ stimulated human peripheral blood mononuclear cells; assay type: cell-based; settings: human PBMC
Experimental: The impact of Examples 23, 80, and 101 on IL-17A, IL-22, and CXCL10 levels was analyzed in cryopreserved human peripheral blood mononuclear cells (PBMC) by ELISA. […] For IL-17A and IL-22 assays, Examples 23, 80, and 101 were serially diluted from 10 mM in DMSO and further diluted in assay media to 100× the required final concentration, of which, 2 μL was added per well to a round-bottom 96-well tissue culture plate where the final DMSO concentration per well was 0.1%. CD2, CD3, and CD28 antibody-coated beads from the T-cell activation/expansion kit (Miltenyi Biotec) were added to the PBMC at a bead-to-cell ratio of 1:2.
The mixture of PBMCs and beads were seeded into the wells of the round-bottom 96-well plate at a concentration of 2×10^5 cells/well in a total volume of 200 μL. The cells were cultured for 72 hours at 37° C. and 5% CO2 and then supernatants were collected and IL-17A and IL-22 levels were measured by ELISA. For the CXCL10 assay, Examples 23, 80, and 101 were serially diluted from 10 mM in DMSO and further diluted in assay media to 100× the required final concentration, of which 2 μL was added per well to a 96-well tissue culture plate. The final compound concentration ranged from 30,000 nM to 0.005 nM and the final DMSO concentration per well was 0.3%. PBMCs were seeded at approximately 2×10^5 cells/well in the wells of the 96-well tissue culture plate in a total volume of 190 μL. The plate was incubated for 1 hour at 37° C. and 5% CO2. The cells were then stimulated with IFN-γ (15 ng/mL final concentration) in a volume of 10 μL. The cells were then cultured for 24 hours at 37° C. and 5% CO2. The supernatant was collected and CXCL10 levels were measured by ELISA.

[1] = test system: collagen-induced arthritis; test: Histopathologic analysis of H&E-stained hind limbs of CIA rats; assay type: in vivo, Lewis rat; settings: hind limbs, CIA induced, 8 animals examined
Description: Hind limbs were collected following euthanasia, with the left limb being used for H&E staining.
H&E-stained slides of designated tissues from animals were transferred to an independent pathologist for microscopic evaluation (SPFBio). Samples were assigned the histologic grades based on the severity of change from tissue where CIA was not induced. Histology grades assigned were as follows: grade 1 (minimal change), grade 2 (mild change), grade 3 (moderate change), grade 4 (marked change), and grade 5 (severe change).
Moderate inflammation was also associated with increased edema fluid, fibrin, and cellular debris. Marked mixed cell inflammation was characterized by dense, widespread accumulations of neutrophils and macrophages with lesser number of lymphocytes within one or more joint spaces, synovium and periarticular soft tissues. Marked inflammation was also associated with abundant edema fluid, fibrin, and cellular debris.
Marked granulation tissue (pannus) was associated with inflammation and was characterized by widespread fibrovascular connective tissue that expanded/replaced the periarticular soft tissues of one or more joints, extended into/expanded joint spaces, was contiguous with areas of erosion/ulcer in articular cartilage and/or increased eroded surface of bone, and variably extended along the diaphysis.
Instances of minimal increased eroded surface were not associated with fragments of bone contiguous and/or surrounded by granulation tissue. […] In some areas, increased eroded surfaces were contiguous with areas of erosion/ulcer in the articular cartilages. Instance of marked increased eroded surface were often associated with fragments of bone contiguous with and/or surrounded by granulation tissue.
This observation was typically most pronounced at joint margins (transition zone). The ulceration was often associated with inflammation and granulation tissue extending through the defect to the subchondral bone.
Marked increased periosteal bone (periosteal bone formation) was characterized by extensive areas of increased bone matrix and numerous prominent osteoblasts lining trabecular surfaces along the metaphysis and/or diaphysis of one or more bones. In some areas, increased periosteal bone was contiguous with increased eroded surface and/or erosion/ulcer at articular cartilage.

`CNC(=O)c1[nH]c(C(=O)NC2CCC2)cc1O[C@@H](C)c1ccccc1` (stereo in doubt) [Example 101, N^5-cyclobutyl-N^2-methyl-3-(1-phenylethoxy)-1H-pyrrole-2,5-dicarboxamide] was tested, and the “selectivity to induction of CXCL10 relative to IL-17A and IL-22” value (CXCL10) was “showed selectivity to induction of CXCL10 relative to IL-17A and IL-22”, the “IC50 for CXCL-10 relative to GSK620” value (CXCL10; IFN-γ, 24 hours) was “substantially lower IC50” and the IC50 (CXCL10; Test Subject 1, read-out: CXCL10 IC50) was > 30 µM. For the same compound, the IC50 (CXCL10; Test Subject 2, read-out: CXCL10 IC50) was > 30 µM, the IC50 (CXCL10; Test Subject 3, read-out: CXCL10 IC50) was > 30 µM and the IC50 (CXCL10; mean of test subjects, read-out: CXCL10 IC50 Mean) was > 30 µM. The “Number of animals: Erosion/Ulcer, cartilaginous, Marked” value ([1]; 3 mg/kg) was 0, the “Number of animals: Erosion/Ulcer, cartilaginous, Mild” value ([1]; 3 mg/kg) was 2 and the “Number of animals: Erosion/Ulcer, cartilaginous, Minimal” value ([1]; 3 mg/kg) was 0. For the same compound, the “Number of animals: Erosion/Ulcer, cartilaginous, Moderate” value ([1]; 3 mg/kg) was 6, the “Number of animals: Granulation tissue, Marked” value ([1]; 3 mg/kg) was 0 and the “Number of animals: Granulation tissue, Mild” value ([1]; 3 mg/kg) was 1. The “Number of animals: Granulation tissue, Minimal” value ([1]; 3 mg/kg) was 0, the “Number of animals: Granulation tissue, Moderate” value ([1]; 3 mg/kg) was 7 and the “Number of animals: Increased bone, periosteum, Marked” value ([1]; 3 mg/kg) was 0. The “Number of animals: Increased bone, periosteum, Mild” value ([1]; 3 mg/kg) was 7, the “Number of animals: Increased bone, periosteum, Minimal” value ([1]; 3 mg/kg) was 0 and the “Number of animals: Increased bone, periosteum, Moderate” value ([1]; 3 mg/kg) was 1. The “Number of animals: Increased eroded surface, bone, Marked” value ([1]; 3 mg/kg) was 0, the “Number of animals: Increased eroded surface, bone, Mild” value ([1]; 3 mg/kg) was 5 and the “Number of animals: Increased eroded surface, bone, Minimal” value ([1]; 3 mg/kg) was 0. The “Number of animals: Increased eroded surface, bone, Moderate” value ([1]; 3 mg/kg) was 3, the “Number of animals: Mixed cell inflammation, Marked” value ([1]; 3 mg/kg) was 1 and the “Number of animals: Mixed cell inflammation, Mild” value ([1]; 3 mg/kg) was 0. The “Number of animals: Mixed cell inflammation, Minimal” value ([1]; 3 mg/kg) was 0, the “Number of animals: Mixed cell inflammation, Moderate” value ([1]; 3 mg/kg) was 7 and the “Number of animals: No Visible Lesions” value ([1]; 3 mg/kg) was 0. For the same compound, the “Number of animals: Erosion/Ulcer, cartilaginous, Marked” value ([1]; 10 mg/kg) was 0, the “Number of animals: Erosion/Ulcer, cartilaginous, Mild” value ([1]; 10 mg/kg) was 3 and the “Number of animals: Erosion/Ulcer, cartilaginous, Minimal” value ([1]; 10 mg/kg) was 1. For the same compound, the “Number of animals: Erosion/Ulcer, cartilaginous, Moderate” value ([1]; 10 mg/kg) was 3, the “Number of animals: Granulation tissue, Marked” value ([1]; 10 mg/kg) was 0 and the “Number of animals: Granulation tissue, Mild” value ([1]; 10 mg/kg) was 3. For the same compound, the “Number of animals: Granulation tissue, Minimal” value ([1]; 10 mg/kg) was 0, the “Number of animals: Granulation tissue, Moderate” value ([1]; 10 mg/kg) was 3 and the “Number of animals: Increased bone, periosteum, Marked” value ([1]; 10 mg/kg) was 0. For the same compound, the “Number of animals: Increased bone, periosteum, Mild” value ([1]; 10 mg/kg) was 4, the “Number of animals: Increased bone, periosteum, Minimal” value ([1]; 10 mg/kg) was 1 and the “Number of animals: Increased bone, periosteum, Moderate” value ([1]; 10 mg/kg) was 2. The “Number of animals: Increased eroded surface, bone, Marked” value ([1]; 10 mg/kg) was 0, the “Number of animals: Increased eroded surface, bone, Mild” value ([1]; 10 mg/kg) was 2 and the “Number of animals: Increased eroded surface, bone, Minimal” value ([1]; 10 mg/kg) was 2. For the same compound, the “Number of animals: Increased eroded surface, bone, Moderate” value ([1]; 10 mg/kg) was 3, the “Number of animals: Mixed cell inflammation, Marked” value ([1]; 10 mg/kg) was 2 and the “Number of animals: Mixed cell inflammation, Mild” value ([1]; 10 mg/kg) was 2. The “Number of animals: Mixed cell inflammation, Minimal” value ([1]; 10 mg/kg) was 1, the “Number of animals: Mixed cell inflammation, Moderate” value ([1]; 10 mg/kg) was 3 and the “Number of animals: No Visible Lesions” value ([1]; 10 mg/kg) was 0. The “Number of animals: Erosion/Ulcer, cartilaginous, Marked” value ([1]; 30 mg/kg) was 0, the “Number of animals: Erosion/Ulcer, cartilaginous, Mild” value ([1]; 30 mg/kg) was 4 and the “Number of animals: Erosion/Ulcer, cartilaginous, Minimal” value ([1]; 30 mg/kg) was 1. The “Number of animals: Erosion/Ulcer, cartilaginous, Moderate” value ([1]; 30 mg/kg) was 0, the “Number of animals: Granulation tissue, Marked” value ([1]; 30 mg/kg) was 0 and the “Number of animals: Granulation tissue, Mild” value ([1]; 30 mg/kg) was 1. The “Number of animals: Granulation tissue, Minimal” value ([1]; 30 mg/kg) was 2 and the “Number of animals: Granulation tissue, Moderate” value ([1]; 30 mg/kg) was 4.
